Results as given in US10238713B2, “Cyclic tetrapeptides and therapeutic applications thereof” (LODZ UNIVERSITY OF TECHNOLOGY, priority 2010, dated 2019).
“And” between values parts separate entries of the source, which are not always exact repeats. Equal entries are not always repeated. Where two headings read alike, the source gives them in different places. Non-standard residues stand in square brackets, D forms with d. Residues, ends and D or L forms follow the SMILES beside them. β3hF = N[C@H](CC(=O)O)Cc1ccccc1

How the values were obtained:
[1] = tested on: PHA-induced proliferation of human peripheral blood mononuclear cells (PBMC); assay: Proliferative response of PBMC to PHA (MTT); format: cell-based; details: 1 μg/ml, four-day incubation; FIGS. 9A-9B; listed as 4B8M
[2] = tested on: LPS-induced TNF-α production; format: cell-based; details: for % inhibition vs. DMSO / TNF-α: Table 2A
Procedure: Human whole blood was diluted 10-fold with RPMI-1640 medium and distributed to 24-well culture plates in 1 ml aliquots. LPS was added to the culture at a concentration of 1 μg/ml. The studied peptides were used at concentrations of 1, 10 and 100 μg/ml. After overnight incubation, the supernatants were harvested and frozen at −20° C. until cytokine determination. TNF-α activity was determined using a bioassay. Briefly, WEHI 164.13 cells (ATCC CRL 1751) were seeded at a concentration of 2×10^4 cells/well in quadriplicate. Increasing dilutions of the assayed supernatant were mixed with the target cells in the presence of actinomycin D (1 μg/ml). After 20 h of incubation, MTT was added into the wells, and the cultures were incubated for an additional 4 h. […] The detection limit of the assay was about 2.5 pg/ml. One unit of TNF-α activity was defined as an inverse of supernatant dilution where 50% cell death took place. The cultures labeled “Control (−)” contained no LPS. The cultures labeled “Control (LPS)” contained LPS and none of the studied compounds. Statistical analysis was not applied since the data derive from single cultures (wells).

[3] = tested on: BALB/c mice, immune response to TDI; assay: Toluene diisocyanate (TDI)-induced ear inflammation in BALB/c mice; format: in vivo
Procedure: BALB/c female mice, 8-10 weeks old, were delivered by the Institute of Laboratory Medicine, Łódź, Poland. The mice were fed a commercial, pelleted food and water ad libitum. The local ethics committee approved the study.
The test was performed according to Yamamoto, Eur. J. Pharmacol., 2006, 550, 166-172, with minor modifications. Mice were shaved on the abdomen (2×2 cm area) and after 24 h 100 μl of 3% TDI in acetone was applied through 3 consecutive days. After 14 days the reaction was elicited by application of 50 μl of 0.3% TDI on both sides of the ears. The procedure was repeated 5 times every 3 days. Ear thickness was measured using a spring caliper (Mitutoyo) 5 h and 24 h after each challenge with TDI.
Compound I-A was applied topically in the form of 0.1% ointment on both sides of the ears (total volume of 100 μl-50 μl per ear), one hour after each challenge with TDI. The reference drugs were applied in a similar way.
Superficial parotid, mandibular and accessory mandibular lymph nodes were isolated, homogenized by pressing against a stainless screen into PBS, washed 2× with PBS and re-suspended in PBS containing 0.2% Trypan blue. The total and nonviable cell numbers were counted using a light microscope and Bürker's hemocytometer.
Mice were subjected to halothane anesthesia and bled from the retro-orbital plexus, followed by the cervical dislocation. The number of blood leukocytes was determined by dilution of blood in Turk's solution and counting the cells in a hemocytometer. Blood smears were prepared on microscope glass, dried and stained with Giemsa and May-Grünwald reagents. The smears were subsequently reviewed histologically. The cell numbers were presented per 1 μl and the blood cell compositions as a percentage of a given cell type.
Mice were given 1 mg of Evans blue in 0.2 ml of 0.9% NaCl, intravenously. After 30 min mice were sacrificed, the ears were cut off, weighed and immersed in 50 μl of 1M KOH for 18 h at 37° C. The dye was extracted from the ears using 450 μl of 0.2 M phosphate acid and acetone (5:13 ratio). The samples were centrifuged at 3,000 rpm for 15 min. The optical densities (OD) of the supernatants were measured at 630 nm. The amount of Evans blue (g/ml) was determined based on a standard curve. The results were presented as the amount of Evans blue per 100 mg of wet tissue. Mice treated only with the eliciting dose of antigen served as a background control.
The auricles were fixed in 4% formalin solution for 48 h, washed for 24 h, dehydrated in an alcohol series and embedded in paraffin. The paraffin blocks were sliced in a Micron HM310 microtome into […]. The sections were stained with haematoxylin and eosin and with toluidine blue. Histological analysis was performed using a Nikon Eclipse 801light microscope. Morphometric estimations of neutrophils, macrophages, lymphocytes and mast cells in the perivascular and subepithelial connective tissue were performed on the histological slides containing cross-sections of auricles. Cells were counted on an area of 0.07 mm^2 at 400× magnification. Morphometric analysis was performed using an imagine software NIS-Elements (Nikon). For every preparation examined, 25 enumerations of neutrophils, macrophages, lymphocytes and mast cells were carried out.

For `O=C1C[C@H](Cc2ccccc2)NC(=O)[C@@H]2CCCN2C(=O)[C@@H]2CCCN2C(=O)[C@H](Cc2ccccc2)N1` [I-A] (cyclo(FPP[β3hF])), the “PHA-induced PBMC proliferation, P vs DMSO at appropriate dilution” value [1] was 0.9995 and 0.9919, the “% inhibition vs. DMSO” value ([2]; compound 1 μg/ml) was 9.8% and the TNF-α ([2]; compound 1 μg/ml, LPS 1 μg/ml, overnight) was 7364 pg/mL. The “% inhibition vs. DMSO” value ([2]; compound 10 μg/ml) was 10.4%, the TNF-α ([2]; compound 10 μg/ml) was 7176 pg/mL and the “% inhibition vs. DMSO” value ([2]; compound 100 μg/ml) was 9.2%. The TNF-α ([2]; compound 100 μg/ml (DMSO only: 196)) was 178 pg/mL, the “% of inhibition vs. DMSO” value ([2]; Table 2B, compound 1 μg/ml) was 10.0% and the TNF alpha ([2]; Table 2B, compound 1 μg/ml) was 4097 pg/mL. The TNF alpha ([2]; Table 2B, compound 10 μg/ml) was 4416 pg/mL, the TNF alpha ([2]; Table 2B, compound 100 μg/ml (DMSO only: 854)) was 979 pg/mL and the “ear thickness, P vs Control” value ([3]; 5 h after challenge, Day 14, topical 1 h after each TDI challenge, FIG. 10A) was 0.0005. For the same compound, the “ear thickness, P vs Control” value ([3]; 5 h after challenge, Day 17, FIG. 10A) was 0.0001, the “ear thickness, P vs Control” value ([3]; 5 h after challenge, Day 20, FIG. 10A) was 0.0001 and the “ear thickness, P vs Control” value ([3]; 5 h after challenge, Day 23, FIG. 10A) was 0.0001. The “ear thickness, P vs Control” value ([3]; 5 h after challenge, Day 27, FIG. 10A) was 0.0001, the “ear thickness, P vs Control” value ([3]; 24 h after challenge, Day 14, FIG. 10B) was 0.0001 and the “ear thickness, P vs Control” value ([3]; 24 h after challenge, Day 17, FIG. 10B) was 0.0001. The “ear thickness, P vs Control” value ([3]; 24 h after challenge, Day 20, FIG. 10B) was 0.0006, the “ear thickness, P vs Control” value ([3]; 24 h after challenge, Day 23, FIG. 10B) was 0.0001 and the “ear thickness, P vs Control” value ([3]; 24 h after challenge, Day 27, FIG. 10B) was 0.0001. The “permeability of capillary blood vessels in the Evans blue test, P vs Control” value ([3]; 24 h after the fifth challenge with TDI (day 28), FIG. 11) was 0.030, the “total number of cells in the draining lymph nodes, P vs Control” value ([3]; ANOVA of Kruskal-Wallis, FIG. 12) was 0.0001 and the “numbers of circulating leukocytes, P vs Control” value ([3]; ANOVA, FIG. 13) was 0.0001. For the same compound, the “total number of cells in the draining lymph nodes” value ([3]; FIG. 12) was “reduction of the lymph node cell numbers almost to the background levels”, the “blood cell composition, Eosinophils (E), P vs Control” value ([3]; FIG. 14) was 0.0001 and the “blood cell composition, Lymphocytes (L), P vs Control” value ([3]; FIG. 14) was 0.0043. The “blood picture (neutrophil and eosinophil contents)” value ([3]; FIG. 14) was “normalized”, the “auricle Ne (neutrophils), P vs Control” value ([3]; FIG. 15) was 0.0151 and the “cell numbers in the auricles after treatment” value ([3]; area 0.07 mm^2, cell type not stated, sensitized untreated control: 20 mastocytes, 23 neutrophils, FIG. 15) was 14.8 cells per the analyzed area.
